Assay results reported in ChEMBL document CHEMBL1201862, “PubChem BioAssay data set” (2004).
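The compound was tested at five concentrations on cells cultured in 96-well plates, with a 48-hour exposure period. GI50 marks 50% less growth.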 Active and inactive are the calls of the source. Rule as the data show it: active = GI50 up to about 1.1 µM and inactive = higher.

Columns and labels:
Assay in all cases: NCI-60 cell line screen, 48 h
[1] = system: NCI-H23
[2] = system: 786-0
[3] = system: UACC-62
[4] = system: NCI-H226
[5] = system: K562
[6] = system: SK-OV-3
[7] = system: SK-MEL-28
[8] = system: SK-MEL-2
[9] = system: HCT-116
[10] = system: OVCAR-5
[11] = system: HL-60
[12] = system: SW-620
[13] = system: A549
[14] = system: RPMI-8226
[15] = system: HOP-62
[16] = system: SF-268
[17] = system: SNB-19
[18] = system: COLO 205
[19] = system: SR

SMILES | GI50 [1] | GI50 [2] | GI50 [3] | GI50 [4] | GI50 [5] | GI50 [6] | GI50 [7] | GI50 [8] | GI50 [9] | GI50 [10] | GI50 [11] | GI50 [12] | GI50 [13] | GI50 [14] | GI50 [15] | GI50 [16] | GI50 [17] | GI50 [18] | GI50 [19]
Cc1ncc(CCl)c2c1OC(C)(C)OC2 | > 100 µM (inactive) | 20.8 µM (inactive) | > 100 µM (inactive) | > 100 µM (inactive) | 41.2 µM (inactive) | > 100 µM (inactive) | 24 µM (inactive) | > 100 µM (inactive) | 25.1 µM (inactive) | 22.3 µM (inactive) | 27 µM (inactive) | 18.7 µM (inactive) | > 100 µM (inactive) | 37.2 µM (inactive) | > 100 µM (inactive) | 22.8 µM (inactive) | 63.8 µM (inactive) | – | –
Oc1ccc(/N=C/c2ccc(/C=N/c3ccc(O)cc3)cc2)cc1 | 17.1 µM (inactive) | 15.3 µM (inactive) | 12.6 µM (inactive) | 14.6 µM (inactive) | 17.5 µM (inactive) | 16.9 µM (inactive) | 18.8 µM (inactive) | 21.2 µM (inactive) | 14.8 µM (inactive) | 19.3 µM (inactive) | – | 17.5 µM (inactive) | 19.2 µM (inactive) | 10.1 µM (inactive) | 17.6 µM (inactive) | 15.5 µM (inactive) | 16 µM (inactive) | 18.5 µM (inactive) | 6.44 µM (inactive)
CCCCOC(=O)NC(=O)c1cn(CCCOC(=O)CCCCCCCCC(=O)OCCCn2cc(C(=O)NC(=O)OCCCC)c(=O)n(C)c2=O)c(=O)n(C)c1=O | > 100 µM (inactive) | > 100 µM (inactive) | > 100 µM (inactive) | > 100 µM (inactive) | > 100 µM (inactive) | – | > 100 µM (inactive) | > 100 µM (inactive) | > 100 µM (inactive) | > 100 µM (inactive) | > 100 µM (inactive) | > 100 µM (inactive) | > 100 µM (inactive) | > 100 µM (inactive) | > 100 µM (inactive) | > 100 µM (inactive) | > 100 µM (inactive) | > 100 µM (inactive) | > 100 µM (inactive)
N=C(N)NCCCC(NCc1c2ccccc2[n+]([O-])c2ccccc12)C(=O)O (stereo not given) | 42.2 µM (inactive) | 38.9 µM (inactive) | 54.8 µM (inactive) | 35.5 µM (inactive) | 29.7 µM (inactive) | > 100 µM (inactive) | 40.8 µM (inactive) | > 100 µM (inactive) | 25.6 µM (inactive) | > 100 µM (inactive) | 24.9 µM (inactive) | 39.8 µM (inactive) | > 100 µM (inactive) | 30.3 µM (inactive) | > 100 µM (inactive) | 33.8 µM (inactive) | 55.6 µM (inactive) | > 100 µM (inactive) | –
OCCNC1=Nc2ccc(Cl)cc2C(=S)N2CSC[C@@H]12 | > 100 µM (inactive) | > 100 µM (inactive) | > 100 µM (inactive) | – | > 100 µM (inactive) | > 100 µM (inactive) | > 100 µM (inactive) | > 100 µM (inactive) | > 100 µM (inactive) | > 100 µM (inactive) | – | > 100 µM (inactive) | > 100 µM (inactive) | > 100 µM (inactive) | > 100 µM (inactive) | > 100 µM (inactive) | > 100 µM (inactive) | > 100 µM (inactive) | > 100 µM (inactive)
COc1cc(O)c(C(=O)C2Cc3ccccc32)c(OC)c1 (stereo not given) | – | 44.2 µM (inactive) | 57.5 µM (inactive) | 22.6 µM (inactive) | 32.7 µM (inactive) | > 100 µM (inactive) | – | 34.3 µM (inactive) | 38.6 µM (inactive) | 35.7 µM (inactive) | 13 µM (inactive) | 59.7 µM (inactive) | 35.8 µM (inactive) | 16.8 µM (inactive) | > 100 µM (inactive) | 67.8 µM (inactive) | > 100 µM (inactive) | > 100 µM (inactive) | –
CC/C=C/c1cc2c(c3[nH]ccc13)[C@@H](C)CC2C.CC/C=C/c1cc2cc[nH]c2c2c1C(C)C[C@@H]2C.CCc1cc2c(c3[nH]ccc13)[C@@H](C)CC2C (stereo not given in full) | 17.4 µM (inactive) | 17 µM (inactive) | – | 15.2 µM (inactive) | – | – | 15.7 µM (inactive) | 15.4 µM (inactive) | 18.5 µM (inactive) | 19.9 µM (inactive) | 18.3 µM (inactive) | 16.9 µM (inactive) | 21.4 µM (inactive) | – | 16.3 µM (inactive) | 15.5 µM (inactive) | 19.2 µM (inactive) | 20.9 µM (inactive) | –
CCOC(=O)C(C)Sc1nnc(COc2ccccc2OC)n1-c1ccccc1 (stereo not given) | > 100 µM (inactive) | > 100 µM (inactive) | > 100 µM (inactive) | > 100 µM (inactive) | 30.1 µM (inactive) | > 100 µM (inactive) | > 100 µM (inactive) | > 100 µM (inactive) | 80.7 µM (inactive) | > 100 µM (inactive) | 32.8 µM (inactive) | 19.2 µM (inactive) | > 100 µM (inactive) | 23.9 µM (inactive) | > 100 µM (inactive) | > 100 µM (inactive) | > 100 µM (inactive) | > 100 µM (inactive) | –
O=C1OC(CC(=O)c2ccc(Cl)c(Cl)c2)C(Cl)=C1Cl (stereo not given) | > 100 µM (inactive) | > 100 µM (inactive) | > 100 µM (inactive) | 68.9 µM (inactive) | 38.8 µM (inactive) | > 100 µM (inactive) | > 100 µM (inactive) | > 100 µM (inactive) | – | > 100 µM (inactive) | 82 µM (inactive) | > 100 µM (inactive) | > 100 µM (inactive) | > 100 µM (inactive) | > 100 µM (inactive) | > 100 µM (inactive) | 79.3 µM (inactive) | > 100 µM (inactive) | –
CCCCCCCC(=O)OCC1OC(n2cc(F)c(=O)[nH]c2=O)C(N)C(OC(=O)CCCCCCC)C1O (stereo not given) | 20.1 µM (inactive) | 19.4 µM (inactive) | 17.8 µM (inactive) | – | – | 28.8 µM (inactive) | 17.3 µM (inactive) | 18.8 µM (inactive) | 19.5 µM (inactive) | – | 20.2 µM (inactive) | 18.4 µM (inactive) | 18.3 µM (inactive) | 23.2 µM (inactive) | 18.6 µM (inactive) | 18.5 µM (inactive) | 17.5 µM (inactive) | 18.5 µM (inactive) | –
CCCNC(=O)c1cc2ccccc2cc1C(=O)OC | > 100 µM (inactive) | > 100 µM (inactive) | > 100 µM (inactive) | 83.4 µM (inactive) | > 100 µM (inactive) | > 100 µM (inactive) | > 100 µM (inactive) | > 100 µM (inactive) | > 100 µM (inactive) | > 100 µM (inactive) | > 100 µM (inactive) | > 100 µM (inactive) | > 100 µM (inactive) | 60.8 µM (inactive) | > 100 µM (inactive) | > 100 µM (inactive) | > 100 µM (inactive) | > 100 µM (inactive) | –
CC(=O)OCc1ncccc1C(OC(C)=O)OC(C)=O | > 100 µM (inactive) | > 100 µM (inactive) | > 100 µM (inactive) | – | > 100 µM (inactive) | > 100 µM (inactive) | > 100 µM (inactive) | > 100 µM (inactive) | > 100 µM (inactive) | > 100 µM (inactive) | > 100 µM (inactive) | > 100 µM (inactive) | > 100 µM (inactive) | – | > 100 µM (inactive) | > 100 µM (inactive) | > 100 µM (inactive) | > 100 µM (inactive) | > 100 µM (inactive)
CCN(CC)C1CC(O[C@H]2C[C@](O)(C(=O)CO)Cc3c(O)c4c(c(O)c32)C(=O)c2c(OC)cccc2C4=O)OC(C)C1O (stereo not given in full) | 0.0491 µM (active) | 0.0588 µM (active) | 0.0431 µM (active) | 0.019 µM (active) | 0.0264 µM (active) | 0.299 µM (active) | 0.0764 µM (active) | 0.067 µM (active) | 0.0214 µM (active) | 0.12 µM (active) | 0.106 µM (active) | < 0.0219 µM (active) | 0.0395 µM (active) | 0.0513 µM (active) | 0.0887 µM (active) | 0.047 µM (active) | 0.103 µM (active) | 0.0387 µM (active) | –
CN(C)CCN1CCc2c([nH]c3ccccc23)C1c1cccnc1 (stereo not given) | > 100 µM (inactive) | > 100 µM (inactive) | > 100 µM (inactive) | – | > 100 µM (inactive) | > 100 µM (inactive) | > 100 µM (inactive) | – | > 100 µM (inactive) | > 100 µM (inactive) | > 100 µM (inactive) | > 100 µM (inactive) | > 100 µM (inactive) | > 100 µM (inactive) | > 100 µM (inactive) | > 100 µM (inactive) | > 100 µM (inactive) | – | > 100 µM (inactive)
CCN(CC)CCOC(c1ccccc1)c1ccccc1.CCOC(=O)Nc1ccc(S(=O)(=O)OC)cc1.CCOC(=O)Nc1ccc(S(=O)(=O)OC)cc1.Nc1ccc(C(=O)O)c(O)c1 | > 100 µM (inactive) | > 100 µM (inactive) | > 100 µM (inactive) | > 100 µM (inactive) | > 100 µM (inactive) | > 100 µM (inactive) | > 100 µM (inactive) | > 100 µM (inactive) | > 100 µM (inactive) | > 100 µM (inactive) | > 100 µM (inactive) | > 100 µM (inactive) | > 100 µM (inactive) | – | > 100 µM (inactive) | > 100 µM (inactive) | > 100 µM (inactive) | > 100 µM (inactive) | –
CC1CCC2[C@@H](C)COC3O[C@]4(C)CCC1C32OO4 (stereo not given in full) | > 100 µM (inactive) | > 100 µM (inactive) | > 100 µM (inactive) | > 100 µM (inactive) | 38.9 µM (inactive) | > 100 µM (inactive) | > 100 µM (inactive) | > 100 µM (inactive) | > 100 µM (inactive) | > 100 µM (inactive) | – | > 100 µM (inactive) | > 100 µM (inactive) | – | > 100 µM (inactive) | > 100 µM (inactive) | > 100 µM (inactive) | > 100 µM (inactive) | –
